# Assay results as given in patent publication US6515025B2, “Use of ethynyl alanine amino diol compounds to inhibit enzymatic conversion of angiotensinogen to angiotensin I” (Pharmacia Corporation, priority 1991, dated 2003).
# Several values for one entry are separate records, joined by “and”; a condition that tells them apart may be missing. Equal values may be shown once. Read-outs that look alike come from different tables or passages of the source.
# Legend:
# human renin = molecular target: T1, human renin (Homo sapiens, UniProt P00797); experiment: Human renin inhibition in vitro; assay type: biochemical
# T1 construct: purchased National Institute for Biological Standards, London
# T1 sequence (P00797 67-406): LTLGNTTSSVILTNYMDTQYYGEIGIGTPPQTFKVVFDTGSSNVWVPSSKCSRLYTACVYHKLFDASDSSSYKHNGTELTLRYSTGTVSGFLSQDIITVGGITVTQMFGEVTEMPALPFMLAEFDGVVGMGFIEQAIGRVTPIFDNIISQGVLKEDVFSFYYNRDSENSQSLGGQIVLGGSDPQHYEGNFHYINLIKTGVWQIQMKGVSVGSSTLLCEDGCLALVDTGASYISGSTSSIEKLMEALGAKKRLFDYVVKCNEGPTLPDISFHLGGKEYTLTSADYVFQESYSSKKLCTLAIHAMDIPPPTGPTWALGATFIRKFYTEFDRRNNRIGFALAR
# Method: Compounds of Formula I were evaluated as inhibitors of human renin in an in vitro assay, as follows: This human renin inhibition test has been previously described in detail [Papaioannou et al., Clinical and Experimental Hypertension, A7(9), 1243-1257 (1985)]. Human renin was obtained from the National Institute for Biological Standards, London. An incubation mixture was prepared containing the following components: in a total volume of 0.25 mL: 100 mM Tris-acetate buffer at pH 7.4, 25×10^−6 Goldblatt units of renin, 0.05 mL of plasma from human volunteers taking oral contraceptives, 6.0 mM Na-EDTA, 2.4 mM phenylmethyl sulfonyl fluoride, 1.5 mM 8-hydroxyquinoline, 0.4 mg/mL bovine serum albumin (BSA), and 0.024 mg/mL neomycin sulfate. This mixture was incubated for two hours at 37° C. in the presence or absence of renin inhibitors. The produced angiotensin I was determined by radioimmunoassay (New England Nuclear kit). Test compounds to be assayed were dissolved in DMSO and diluted with 100 mM Tris-acetate buffer at pH 7.4 containing 0.5% BSA to the appropriate concentration. The final concentration of organic solvent in the reaction mixture was less than 1%. Control incubations at 37° C. were used to correct for effects of organic solvent on renin activity.
# [1] = system: Plasma Renin Activity (PRA); experiment: Marmoset plasma renin activity (PRA) reduction on oral administration; assay type: in vivo, Marmoset monkeys (Callithrix jacchus); settings: IG; for inhibition at 0.1 mg/kg / inhibition at 1 mg/kg: Primates, po
# Method: The oral activity of renin inhibitor compounds was determined in vivo in Marmoset monkeys using the following procedure. Common Marmoset monkeys (Callithrix jacchus, Charles River, both sexes, body weight 300-400 g) were placed on a modified high-protein low-sodium diet (Purina, St. Louis, Mo.) for 1 week. About 24 hours prior to the administration of test compound, Lasix (5 mg/kg, im) was given. On the day of the test, the animal was anesthetized with isoflurane, body weight recorded, and a baseline blood sample taken. Then, test compound was given intragastrically and blood samples were taken in K-EDTA for plasma renin activity at appropriate time intervals. The PRA was determined by using the protocol outlined below. Results are expressed in terms of PRA at various time intervals both before and after compound administrations (“Pre” means pretreatment levels before compound administrations). Also included is percent inhibition (% INH from pretreatment levels).
# I. Angiotensin I Generation
# […] of the above reaction mixtures, in duplicate, were incubated at 37° C. or 0° C. for 2 hours.
# II. Determination of Angiotensin I Concentrations
# Angiotensin I (AI) concentrations were determined by radioimmunoassays with a commercial kit from NEN Co.
# III. Calculation of Plasma Renin Activity
# PRA (ng AI/ml/hr)=(AI at 37°−AI at 0°)/2 hr.
# [2] = 0.1 MPK, 60 min, individual monkeys
# [3] = 0.1 MPK, 60 min from dosing, individual monkeys
# [4] = 0.1 MPK, 120 min, individual monkeys
# [5] = 0.1 MPK, 120 min from dosing, individual monkeys
# [6] = 0.1 MPK, 240 min, individual monkeys
# [7] = 0.1 MPK, 240 min from dosing, individual monkeys
# [8] = 0.1 MPK, Pre (pretreatment level), individual monkeys
# [9] = 0.1 MPK, 60 min, individual monkeys, read-out: % INH (from pretreatment PRA)
# [10] = 0.1 MPK, 240 min, individual monkeys, read-out: % INH (from pretreatment PRA)
# [11] = 1 h, 0.1 MPK, 60 min, mean of monkeys A-C, read-out: MEAN % INH
# [12] = 2 h, 0.1 MPK, 120 min, mean of monkeys A-C, read-out: MEAN % INH
# [13] = 4 h, 0.1 MPK, 240 min, mean of monkeys A-C, read-out: MEAN % INH
IC50 (human renin) [nM],SMILES,"% INH (from pretreatment PRA) [1, 2]","PRA [1, 3]","% INH (from pretreatment PRA) [1, 4]","PRA [1, 5]","% INH (from pretreatment PRA) [1, 6]","PRA [1, 7]","PRA [1, 8]","inhibition at 0.1 mg/kg [1, 9] [%]","inhibition at 0.1 mg/kg [1, 10] [%]","inhibition at 0.1 mg/kg [1, 11] [%]","inhibition at 0.1 mg/kg [1, 12] [%]","inhibition at 0.1 mg/kg [1, 13] [%]",also measured
4,"C#CC[C@H](NC(=O)C(Cc1ccccc1)OC(=O)N(C)CCN(C)C)C(=O)NC(CC1CCCCC1)[C@@H](O)C(O)CC(C)C (relative stereo) [Example 2, [1R*-[[[1R*-[[[1S,1R*-(Cyclohexylmethyl)-2S*,3R*-dihydroxy-5-methylhexyl]amino]carbonyl]-3-butynyl]amino]carbonyl]-2-phenylethyl)[2-(dimethylamino)ethyl]methylcarbamate]",71.5% and 81.2%,3.9 ngAI/ml/hr and 33.9 ngAI/ml/hr and 12.7 ngAI/ml/hr,86.4% and 64.8% and 78.7%,5.7 ngAI/ml/hr and 41.8 ngAI/ml/hr and 14.4 ngAI/ml/hr,57.2% and 58.2%,28.5 ngAI/ml/hr and 18.1 ngAI/ml/hr and 49.7 ngAI/ml/hr,42.2 ngAI/ml/hr and 118.8 ngAI/ml/hr and 67.5 ngAI/ml/hr,90.7,57.7,81.1 ± 6,76.6 ± 6,57.7,
1,C#CC[C@H](NC(=O)[C@@H](CC(=O)N(C)CCN(CC)CC)Cc1ccccc1)C(=O)N[C@@H](CC1CCCCC1)[C@@H](O)[C@@H](O)CC(C)C [Example 4],,,,,,,,,,,,,
3,"C#CCC(NC(=O)C(Cc1ccccc1)OC(=O)N(C)CCN(C)C)C(=O)NC(CC1CCCCC1)[C@@H](O)C(O)CC(C)C (stereo in doubt) [Example 3, [1R*-[[[1-[[[1S,1R*-(Cyclohexylmethyl)-2S*,3R*-dihydroxy-5-methylhexyl]amino]carbonyl]-3-butynyl]amino]carbonyl]-2-phenylethyl[]2-(dimethylamino)ethyl]methylcarbamate]",60.7% and 66.7%,42.1 ngAI/ml/hr and 29.8 ngAI/ml/hr and 27.8 ngAI/ml/hr,46.9% and 60.3%,47.1 ngAI/ml/hr and 40.3 ngAI/ml/hr and 33.2 ngAI/ml/hr,63.9% and 48%,36.1 ngAI/ml/hr and 38.1 ngAI/ml/hr and 39.5 ngAI/ml/hr,105.5 ngAI/ml/hr and 76 ngAI/ml/hr and 83.7 ngAI/ml/hr,60.1,56.8,62.5 ± 2,54.2 ± 4,56.2 ± 5,"PRA ([1]; 1.0 MPK, 60 min from dosing, individual monkeys): 0 ngAI/ml/hr; PRA ([1]; 1.0 MPK, 120 min from dosing, individual monkeys): 0 ngAI/ml/hr; PRA ([1]; 1.0 MPK, 240 min from dosing, individual monkeys): 0 ngAI/ml/hr; PRA ([1]; 1.0 MPK, Pre (pretreatment level), individual monkeys): 70.5 ngAI/ml/hr and 185.4 ngAI/ml/hr and 76.1 ngAI/ml/hr; inhibition at 0.1 mg/kg ([1]; 0.1 MPK, 120 min, individual monkeys, read-out: % INH (from pretreatment PRA)): 55.3%; inhibition at 1 mg/kg ([1]; 1.0 MPK, 60 min, individual monkeys, read-out: % INH (from pretreatment PRA)): 100%; inhibition at 1 mg/kg ([1]; 1.0 MPK, 120 min, individual monkeys, read-out: % INH (from pretreatment PRA)): 100%; inhibition at 1 mg/kg ([1]; 1.0 MPK, 240 min, individual monkeys, read-out: % INH (from pretreatment PRA)): 100%; inhibition at 1 mg/kg ([1]; 1.0 MPK, printed on the Pre line, read-out: % INH): 100%; inhibition at 1 mg/kg ([1]; 1 h, 1.0 MPK, 60 min, mean of monkeys, read-out: MEAN % INH): 100%; inhibition at 1 mg/kg ([1]; 2 h, 1.0 MPK, 120 min, mean of monkeys, read-out: MEAN % INH): 100%; inhibition at 1 mg/kg ([1]; 4 h, 1.0 MPK, 240 min, mean of monkeys, read-out: MEAN % INH): 100%"
